Laboratory results from paper PMC6032158, “Structure–Activity Relationship of Piplartine and Synthetic Analogues against Schistosoma mansoni and Cytotoxicity to Mammalian Cells” (International Journal of Molecular Sciences, 2018).

Tests used:
[1] = test system: murine fibroblast (NIH-3T3) cells; experiment: MTT cytotoxicity assay in murine fibroblasts; assay type: cell-based
Protocol: Next, the medium was removed and various concentrations (25–800 µg/mL) of samples reconstituted in 3% DMSO were applied. DMSO (3%) was used as a control. The plates were incubated for 24 h. Next, 15 µL of MTT solution (5 mg/mL in phosphate buffer) was added to each well and the plates were incubated for 2 h. Medium was discarded and 100 µL of DMSO was added to each well. Absorbance was determined using a spectrophotometer with a microplate reader at 595 nm (Molecular Devices Corporation, Sunnyvale, CA, USA).

[2] = test system: 49-day-old S. mansoni adult worms; experiment: In vitro experiments with adult worms of S. mansoni (mortality, motor activity); assay type: cell-based, Schistosoma mansoni; details: for Dead Worms (%) F / Motor Activity Reduction (%) Significant F / Motor Activity Reduction (%) Slight F: female worms; for Dead Worms (%) M / Motor Activity Reduction (%) Significant M / Motor Activity Reduction (%) Slight M: male worms
Protocol: The Belo Horizonte (BH) strain of S. mansoni was maintained in Biomphalaria glabrata snails and Mesocricetus auratus hamsters at the Adolfo Lutz Institute (São Paulo, Brazil) according to standard procedures. Detailed methods for the infection of molluscs and hamsters, as well as for the recovery of parasites, were as described previously. Briefly, the intermediate host snails were exposed to light for approximately 3 h and cercariae of S. mansoni were subsequently harvested. […] All animals were handled in strict accordance with good animal practice as defined by the Animal Use Ethics Committee. The preparations and culture of schistosomes was performed as previously described. Briefly, hamsters were killed 49 days after infection for the recovery of adult schistosomes. Next, fresh adult worm pairs (male and female) were washed and placed in a 24-well culture plate (TPP, St. […] Adult schistosomes were maintained continuously in medium (with or without drugs) for 96 h as described below. In vitro assays in S. mansoni adults were performed with mated males and females. The worm pairs obtained from the infusion hamsters were washed twice with RPMI 1640 medium containing 200 U/mL penicillin, 200 μg/mL streptomycin and 2 μg/mL amphotericin B (Vitrocell, Campinas, Brazil). The mated parasites were then transferred into 24-well cell culture plates (TPP, St. […] Cultures of adult worms were monitored by microscopy or magnifying glass. The effect of the drug was assessed with emphasis on changes in worm motor activity and death of worms as previously described.

[3] = test system: mouse BALB/cN macrophage (J774A.1) cell line; experiment: Cell viability by flow cytometry in macrophages; details: 24 h, 25, 100 and 400 µg/mL, vs DMEM control

For `COc1cc(/C=C/C(=O)N(C(=O)NC2CCCCC2)C2CCCCC2)cc(OC)c1OC` [Compound 1M], the “effect on NIH-3T3 cell viability (in words)” value ([1]; MTT, 24 h exposure, 25 to 800 µg/mL) was “considerable reduction in cell viability at concentrations of 400 and 800 μg/mL”, the Emax at 800 µg/mL ([1]; Mus musculus, NIH3T3, 24 h, decrease in cell viability at the maximum concentration tested (800 μg/mL), NIH-3T3, 24 h) was 70.9 ± 1.2% and the “Dead Worms (%) F” value ([2]; 5 µM, 24 h) was 0%. The “Motor Activity Reduction (%) Significant F” value ([2]; 5 µM, 24 h) was 0%, the “Motor Activity Reduction (%) Slight F” value ([2]; 5 µM, 24 h) was 0% and the “Dead Worms (%) M” value ([2]; 5 µM, 24 h) was 0%. The “Motor Activity Reduction (%) Significant M” value ([2]; 5 µM, 24 h) was 0%, the “Motor Activity Reduction (%) Slight M” value ([2]; 5 µM, 24 h) was 0% and the “Dead Worms (%) F” value ([2]; 5 µM, 48 h) was 0%. For the same compound, the “Motor Activity Reduction (%) Significant F” value ([2]; 5 µM, 48 h) was 0%, the “Motor Activity Reduction (%) Slight F” value ([2]; 5 µM, 48 h) was 0% and the “Dead Worms (%) M” value ([2]; 5 µM, 48 h) was 0%. For the same compound, the “Motor Activity Reduction (%) Significant M” value ([2]; 5 µM, 48 h) was 0%, the “Motor Activity Reduction (%) Slight M” value ([2]; 5 µM, 48 h) was 0% and the “Dead Worms (%) F” value ([2]; 5 µM, 72 h) was 0%. For the same compound, the “Motor Activity Reduction (%) Significant F” value ([2]; 5 µM, 72 h) was 0%, the “Motor Activity Reduction (%) Slight F” value ([2]; 5 µM, 72 h) was 0% and the “Dead Worms (%) M” value ([2]; 5 µM, 72 h) was 0%. For the same compound, the “Motor Activity Reduction (%) Significant M” value ([2]; 5 µM, 72 h) was 0%, the “Motor Activity Reduction (%) Slight M” value ([2]; 5 µM, 72 h) was 0% and the “Dead Worms (%) F” value ([2]; 5 µM, 96 h) was 0%. For the same compound, the “Motor Activity Reduction (%) Significant F” value ([2]; 5 µM, 96 h) was 0%, the “Motor Activity Reduction (%) Slight F” value ([2]; 5 µM, 96 h) was 0% and the “Dead Worms (%) M” value ([2]; 5 µM, 96 h) was 0%. The “Motor Activity Reduction (%) Significant M” value ([2]; 5 µM, 96 h) was 0%, the “Motor Activity Reduction (%) Slight M” value ([2]; 5 µM, 96 h) was 0% and the “Dead Worms (%) F” value ([2]; 10 µM, 24 h) was 0%. The “Motor Activity Reduction (%) Significant F” value ([2]; 10 µM, 24 h) was 0%, the “Motor Activity Reduction (%) Slight F” value ([2]; 10 µM, 24 h) was 0% and the “Dead Worms (%) M” value ([2]; 10 µM, 24 h) was 0%. The “Motor Activity Reduction (%) Significant M” value ([2]; 10 µM, 24 h) was 0%, the “Motor Activity Reduction (%) Slight M” value ([2]; 10 µM, 24 h) was 0% and the “Dead Worms (%) F” value ([2]; 10 µM, 48 h) was 0%. The “Motor Activity Reduction (%) Significant F” value ([2]; 10 µM, 48 h) was 0%, the “Motor Activity Reduction (%) Slight F” value ([2]; 10 µM, 48 h) was 0% and the “Dead Worms (%) M” value ([2]; 10 µM, 48 h) was 0%. The “Motor Activity Reduction (%) Significant M” value ([2]; 10 µM, 48 h) was 0%, the “Motor Activity Reduction (%) Slight M” value ([2]; 10 µM, 48 h) was 0% and the “Dead Worms (%) F” value ([2]; 10 µM, 72 h) was 0%. The “Motor Activity Reduction (%) Significant F” value ([2]; 10 µM, 72 h) was 0%, the “Motor Activity Reduction (%) Slight F” value ([2]; 10 µM, 72 h) was 0% and the “Dead Worms (%) M” value ([2]; 10 µM, 72 h) was 0%. For the same compound, the “Motor Activity Reduction (%) Significant M” value ([2]; 10 µM, 72 h) was 0%, the “Motor Activity Reduction (%) Slight M” value ([2]; 10 µM, 72 h) was 0% and the “Dead Worms (%) F” value ([2]; 10 µM, 96 h) was 0%. For the same compound, the “Motor Activity Reduction (%) Significant F” value ([2]; 10 µM, 96 h) was 0%, the “Motor Activity Reduction (%) Slight F” value ([2]; 10 µM, 96 h) was 0% and the “Dead Worms (%) M” value ([2]; 10 µM, 96 h) was 0%. For the same compound, the “Motor Activity Reduction (%) Significant M” value ([2]; 10 µM, 96 h) was 0%, the “Motor Activity Reduction (%) Slight M” value ([2]; 10 µM, 96 h) was 0% and the “Dead Worms (%) F” value ([2]; 25 µM, 24 h) was 0%. For the same compound, the “Motor Activity Reduction (%) Significant F” value ([2]; 25 µM, 24 h) was 0%, the “Motor Activity Reduction (%) Slight F” value ([2]; 25 µM, 24 h) was 0% and the “Dead Worms (%) M” value ([2]; 25 µM, 24 h) was 0%. The “Motor Activity Reduction (%) Significant M” value ([2]; 25 µM, 24 h) was 0%, the “Motor Activity Reduction (%) Slight M” value ([2]; 25 µM, 24 h) was 0% and the “Dead Worms (%) F” value ([2]; 25 µM, 48 h) was 0%. For the same compound, the “Motor Activity Reduction (%) Significant F” value ([2]; 25 µM, 48 h) was 0%, the “Motor Activity Reduction (%) Slight F” value ([2]; 25 µM, 48 h) was 0% and the “Dead Worms (%) M” value ([2]; 25 µM, 48 h) was 0%. The “Motor Activity Reduction (%) Significant M” value ([2]; 25 µM, 48 h) was 0%, the “Motor Activity Reduction (%) Slight M” value ([2]; 25 µM, 48 h) was 0% and the “Dead Worms (%) F” value ([2]; 25 µM, 72 h) was 0%. For the same compound, the “Motor Activity Reduction (%) Significant F” value ([2]; 25 µM, 72 h) was 0%, the “Motor Activity Reduction (%) Slight F” value ([2]; 25 µM, 72 h) was 0% and the “Dead Worms (%) M” value ([2]; 25 µM, 72 h) was 0%. For the same compound, the “Motor Activity Reduction (%) Significant M” value ([2]; 25 µM, 72 h) was 0%, the “Motor Activity Reduction (%) Slight M” value ([2]; 25 µM, 72 h) was 0% and the “Dead Worms (%) F” value ([2]; 25 µM, 96 h) was 0%. For the same compound, the “Motor Activity Reduction (%) Significant F” value ([2]; 25 µM, 96 h) was 0%, the “Motor Activity Reduction (%) Slight F” value ([2]; 25 µM, 96 h) was 0% and the “Dead Worms (%) M” value ([2]; 25 µM, 96 h) was 0%. The “Motor Activity Reduction (%) Significant M” value ([2]; 25 µM, 96 h) was 0%, the “Motor Activity Reduction (%) Slight M” value ([2]; 25 µM, 96 h) was 0% and the “Dead Worms (%) F” value ([2]; 50 µM, 24 h) was 0%. The “Motor Activity Reduction (%) Significant F” value ([2]; 50 µM, 24 h) was 0%, the “Motor Activity Reduction (%) Slight F” value ([2]; 50 µM, 24 h) was 0% and the “Dead Worms (%) M” value ([2]; 50 µM, 24 h) was 0%. The “Motor Activity Reduction (%) Significant M” value ([2]; 50 µM, 24 h) was 0%, the “Motor Activity Reduction (%) Slight M” value ([2]; 50 µM, 24 h) was 0% and the “Dead Worms (%) F” value ([2]; 50 µM, 48 h) was 0%. The “Motor Activity Reduction (%) Significant F” value ([2]; 50 µM, 48 h) was 0%, the “Motor Activity Reduction (%) Slight F” value ([2]; 50 µM, 48 h) was 0% and the “Dead Worms (%) M” value ([2]; 50 µM, 48 h) was 0%. The “Motor Activity Reduction (%) Significant M” value ([2]; 50 µM, 48 h) was 0%, the “Motor Activity Reduction (%) Slight M” value ([2]; 50 µM, 48 h) was 0% and the “Dead Worms (%) F” value ([2]; 50 µM, 72 h) was 0%. The “Motor Activity Reduction (%) Significant F” value ([2]; 50 µM, 72 h) was 0%, the “Motor Activity Reduction (%) Slight F” value ([2]; 50 µM, 72 h) was 0% and the “Dead Worms (%) M” value ([2]; 50 µM, 72 h) was 0%. For the same compound, the “Motor Activity Reduction (%) Significant M” value ([2]; 50 µM, 72 h) was 0%, the “Motor Activity Reduction (%) Slight M” value ([2]; 50 µM, 72 h) was 0% and the “Dead Worms (%) F” value ([2]; 50 µM, 96 h) was 0%. The “Motor Activity Reduction (%) Significant F” value ([2]; 50 µM, 96 h) was 0%, the “Motor Activity Reduction (%) Slight F” value ([2]; 50 µM, 96 h) was 0% and the “Dead Worms (%) M” value ([2]; 50 µM, 96 h) was 0%. For the same compound, the “Motor Activity Reduction (%) Significant M” value ([2]; 50 µM, 96 h) was 0%, the “Motor Activity Reduction (%) Slight M” value ([2]; 50 µM, 96 h) was 0% and the “activity against S. mansoni adult worms (in words)” value ([2]; analogues 50, 25, 10 and 5 μM, piplartine 5 and 10 μM, up to 96 h) was “did not present biological activity against the S. mansoni parasite”. The “effect on J774A.1 cell viability (in words)” value [3] was “significantly altered (p < 0.05) cell viability in comparison with the negative control, but not in a toxic manner”.
